pIC50: −log10 of the molar value. Values joined by “and” are separate entries in the source; they are usually repeats but may differ in a detail not shown here. Identical values can stand only once.
Each molecule was assayed on S. Typhi PhoP-promoter GFP reporter, fluorescence, 4 h (assay: modified counter assay using GFP fluorescence, PhoP regulon inhibitor project, dose response (AID 1985)).
`O=C(NC(=S)NNC(=O)c1cccs1)c1ccc(Br)o1` gave a pIC50 of 4.60.
`O=C(N/N=C/c1c[nH]c2ccccc12)c1ccc(Cl)cc1` was tested, and the pIC50 was 3.91.
Molecule `C=CCNc1ncnc2c1[nH]c1ccc(Cl)cc12` has a pIC50 of 4.31.
`CN1CCN(C(c2ccc(Br)cc2)c2cc(Cl)c3cccnc3c2O)CC1` (stereo not given) showed a pIC50 of 4.47.
Molecule `O=C(N/N=C\C=C\c1ccc([N+](=O)[O-])o1)c1cccs1` has a pIC50 of 4.56.
Work on `CCn1cc(C(=O)O)c(=O)c2cc(F)c(N3CCN(S(=O)(=O)c4ccc(NC(C)=O)cc4)CC3)cc21` yielded a pIC50 of 4.06.
Work on `C[C@H]1COc2c(N3CCN(C)CC3)c(F)cc3c(=O)c(C(=O)O)cn1c23` yielded a pIC50 of over 6.64.
Molecule `CCOC(=O)N1CCN(Cc2cc(Cl)c3cccnc3c2O)CC1` has a pIC50 of 4.42.
With `Cc1[nH]n(-c2ccccc2)c(=O)c1C(c1cccc([N+](=O)[O-])c1O)c1c(C)[nH]n(-c2ccccc2)c1=O` the pIC50 was 4.31.
Molecule `CCn1cc(C(=O)O)c(=O)c2cc(F)c(N3CCN(C(=S)NC(=O)c4cccc(F)c4)CC3)cc21` has a pIC50 of 4.57.
With `C[C@H]1COc2c(C3(N)CC3)c(F)cc3c(=O)c(C(=O)O)cn1c23` the pIC50 was over 6.64.
With `O=C1C2=C(Nc3ccccc3SC2c2ccco2)c2ccccc21` (stereo not given) the pIC50 was 3.92.
For `O=C(Cc1cccs1)N/N=C\c1ccc([N+](=O)[O-])s1`, the pIC50 was 4.70.
Work on `COc1c(N2CCN(C(=S)Nc3ccccc3F)C(C)C2)c(F)cc2c(=O)c(C(=O)O)cn(C3CC3)c12` (stereo not given) yielded a pIC50 of 6.36.
`Oc1ccc(C[C@H]2CNCCN2CCCCC2CCCCC2)cc1` was tested, and the pIC50 was 4.09.
`CCCCCc1ccc(OCCC[n+]2ccccc2)c(CCCCC)c1` was tested, and the pIC50 was 4.08.
`CCCCCC[N+](C)(C)CC/C=C1/c2ccccc2Sc2ccc(Cl)cc21` was tested, and the pIC50 was 4.44.
With `O=C(Nc1ccncc1)Nc1ccc(Cl)cc1` the pIC50 was 4.39.
For `Cc1ccc(Nc2cc(C)c3c(O)cccc3n2)cc1C`, the pIC50 was 4.51.
For `CC(C(=O)NC1C=CS(=O)(=O)C1)N1C(=O)/C(=C/c2ccc(Cl)cc2)SC1=S` (stereo not given), the pIC50 was 4.65.
For `COc1cc(CNCCO)cc(Cl)c1OCc1ccc(Cl)cc1Cl`, the pIC50 was 4.41.
`CCc1ccc2c(c1)C1(NN=C(c3ccc(C)cc3)S1)C(=O)N2` (stereo not given) gave a pIC50 of 4.61.
`Cc1ccc(C[n+]2c(-c3ccc(C)cc3)cc(-c3ccc(C)cc3)cc2-c2ccc(C)cc2)cc1` was tested, and the pIC50 was 4.81.
Work on `Cc1cc(C)n(/N=C/c2cc([N+](=O)[O-])ccc2O)c(=O)c1` yielded a pIC50 of 4.15.
Work on `CCCCCCCCCCCCCCCC[n+]1cccc(C(=O)N(CC)CC)c1` yielded a pIC50 of 4.70.
For `COc1ccc(Nc2ccnc3ccccc23)cc1`, the pIC50 was 4.07.
In the case of `CC1(C)CC(=O)c2c(nc3ccccc3c2N)C1`, the pIC50 was 3.84.
For `O=C1C(SCCO)=C(SCCO)C(=O)c2ccccc21`, the pIC50 was 3.91.
Molecule `O=C(N/N=C/c1cccs1)c1ccc2nc[nH]c2c1` has a pIC50 of 3.87.
`CN(C)c1ccc(O)c2c1CC1CC3C(N(C)C)C(=O)C(C(N)=O)=C(O)[C@@]3(O)C(=O)C1=C2O` (stereo not given in full) was tested, and the pIC50 was 5.49.
Molecule `COc1ccc(Nc2cc(C)c3c(O)cccc3n2)cc1` has a pIC50 of 4.46.
`O=C(OCC(=O)N1CCOCC1)c1ccc[nH]c1=O` gave a pIC50 of 4.97.
`COc1cc(Br)cc(C=Nc2cccc(C(F)(F)F)c2)c1O` gave a pIC50 of 4.16.
For `C/C(=C\C(=O)OCCCCCCCCC(=O)O)C[C@@H]1OC[C@H](C[C@@H]2O[C@H]2[C@@H](C)[C@H](C)O)[C@@H](O)[C@H]1O`, the pIC50 was 4.76.
In the case of `CCOc1ccc(Nc2c3ccccc3nc3ccccc23)cc1`, the pIC50 was 4.25.
For `Cc1ccc(NC(=S)Nc2ccc(S(=O)(=O)Nc3ncccn3)cc2)cc1Cl`, the pIC50 was 3.99.
For `CCc1cccc2c(C(=O)COC(=O)c3ccc([N+](=O)[O-])s3)c[nH]c12`, the pIC50 was 4.98.
In the case of `COc1ccccc1C(C[N+](=O)[O-])c1c(N)n(C)c(=O)n(C)c1=O` (stereo not given), the pIC50 was 4.10.
`C=CCn1c(NS(=O)(=O)c2ccccc2)c(S(=O)(=O)c2ccc(C)cc2)c2nc3ccccc3nc21` gave a pIC50 of 3.87.
`CCCCCCCCCCOC(=O)Cn1c(COc2ccc(OC)cc2)[n+](C)c2ccccc21` was tested, and the pIC50 was 4.71 and 4.73.
Molecule `CC[C@@H](C)[C@H](CNC)NC[C@@H](Cc1cccc2ccccc12)NCCc1cccc(C(F)(F)F)c1` has a pIC50 of 4.66.
For `CCOc1cccc(/C=N/NC(=O)c2cc(C3CC3)[nH]n2)c1O`, the pIC50 was 3.87.
In the case of `O=C(CCN1CCN(C(=O)c2ccccc2)CC1)c1ccc(Br)cc1`, the pIC50 was 3.84.
`CN1CCc2nc(SCC(=O)Nc3cccc(F)c3)c(C#N)c(-c3cccs3)c2C1` showed a pIC50 of 3.87.
With `Oc1ccc(N=Nc2ccc(Br)cc2)c(O)c1` the pIC50 was 4.06.
In the case of `Cc1ccccc1Nc1cc(C)c2c(O)cccc2n1`, the pIC50 was 4.59.
Work on `Cc1cc(NC(=O)c2ccc3[nH]c(C)c(C)c3c2)ccn1` yielded a pIC50 of 3.84.
With `Cc1ccc(Nc2c3c(nc4ccccc24)CCC3)cc1` the pIC50 was 4.40.
`Nc1nonc1C(=O)N/N=C/c1cc(Br)ccc1O` showed a pIC50 of 4.90.
Molecule `Cc1ccsc1/C=N/Nc1ccc(C(=O)O)cc1` has a pIC50 of 4.03.
`CCn1cc(C(=O)NCCO)c(=O)c2cc(F)c(N3CCN(C)CC3)cc21` showed a pIC50 of 4.79.
`Oc1ccccc1C(Nc1nccs1)c1ccc2cccnc2c1O` (stereo not given) showed a pIC50 of 4.46.
Work on `O=c1ccnc(Sc2ncccc2[N+](=O)[O-])[nH]1` yielded a pIC50 of 3.99.
With `O=C(Nc1c(Cl)ccc2nsnc12)c1ccc([N+](=O)[O-])o1` the pIC50 was 4.25.
Molecule `C#CCOCCOCCOCCNc1nc(N2CCN(C(=O)CCCCCCCCCCNC(=O)[C@H](CCCCN)n3cc(C[C@@H](C)CC)nn3)CC2)nc(N2CCN(C(=O)CCCCCCCCCCNC(=O)[C@H](CCCN=C(N)N)n3cc(C[C@@H](C)CC)nn3)CC2)n1` has a pIC50 of 4.17.
In the case of `CCN1CCN(CCNC(=O)c2ccc3c(c2)N(Cc2ccc(F)cc2)C(=O)/C(=C/c2ccccc2)S3)CC1`, the pIC50 was 3.90.
Work on `Cc1ccc(C(=O)Sc2cccccc2=O)cc1` yielded a pIC50 of 5.71.
`Cc1cc2nc(C3CCN(CC4COc5ccccc5O4)CC3)[nH]c2cc1C` (stereo not given) showed a pIC50 of 4.82.
For `CN(C)CC/C=C1\c2ccccc2Sc2cc(F)c(Cl)cc21`, the pIC50 was 4.18.
For `O=C(Cc1ccccc1)NNC(=S)NC(=O)c1cccs1`, the pIC50 was 4.43.
In the case of `COc1c2ccccc2nc2ccccc12`, the pIC50 was 4.54.
Work on `Cc1ccc(-c2ccccc2NC(=O)CS(=O)CC(=O)Nc2ccc(C)c(Cl)c2)o1` (stereo not given) yielded a pIC50 of 4.33.
Molecule `Cc1ccc(C(=O)NNC(=S)NC(=O)COc2ccccc2)cc1` has a pIC50 of 4.32.
For `COc1cc2c(cc1O)[C@H](Cc1ccc(Oc3cc(C[C@@H]4NCCc5cc(OC)c(O)cc54)ccc3O)cc1)NCC2`, the pIC50 was 4.24.
`Cc1ccc(C(=O)N/C(=C\c2ccc(-c3ccc(Cl)cc3)o2)C(=O)NCCCN(C)C)cc1` showed a pIC50 of 4.07.
Work on `O=C(/C=C/c1ccco1)NC(=S)NNC(=O)c1ccco1` yielded a pIC50 of 3.96.
`CN1CCN(C2=Cc3ccccc3Sc3cc(F)c(F)cc32)CC1` was tested, and the pIC50 was 4.13.
`CCC(C)N1CCC2(CC1)N=c1c(c3c4c5c(C)c(O)c3c(O)c1=NC(=O)C(C)=CC=C[C@H](C)[C@H](O)[C@@H](C)[C@@H](O)[C@@H](C)[C@H](OC(C)=O)[C@H](C)[C@@H](OC)C=CO[C@@](C)(O5)C4=O)N2` (stereo not given in full) gave a pIC50 of 5.04.
For `O=C(CC(=O)c1ccccc1O)c1cccc(F)c1`, the pIC50 was 4.42.
`COc1cc2c(cc1OC)[C@H](Cc1ccc(O)cc1)NCC2` showed a pIC50 of 4.06.
`Cc1cc(N/N=C/c2ccc(O)cc2)c2cccc(C)c2n1` gave a pIC50 of 4.09.
Work on `COc1cccc(F)c1C(C[N+](=O)[O-])c1c(N)n(C)c(=O)n(C)c1=O` (stereo not given) yielded a pIC50 of 3.85.
Molecule `Clc1cccc(CN2CCc3c([nH]c4ccccc34)C2)c1Cl` has a pIC50 of 3.98.
In the case of `N=c1c2c(n(Cc3ccc(Cl)c(Cl)c3)c3c1CCC3)CCCC2`, the pIC50 was 4.10.
Molecule `CCC(O)(CC)C(=O)N/N=C/c1cc(Br)cc(Br)c1O` has a pIC50 of 4.22.
